From US7053120B2, “Use of carboxy compounds such as 2(4-acetoxyphenyl)2-chloro-N-methyl-ethylammonium chloride as anti-inflammatory agents” (priority 1999, dated 2006)
Like-named read-outs stand apart in the source and are kept apart here.

What was measured:
oestrus cycle = details: rats; cited from earlier work
[1] = system: NF-κB (p1168(AP-1mut)IL6P-luc+); format: cell-based, mouse; details: 2000 IU/ml TNF
[2] = system: NF-κB DNA-binding activity (IL-6 NF-κB response element); assay: EMSA of NF-κB DNA-binding activity in L929sA cells; format: cell-based, mouse; details: all concentrations indicated, added 2 h before TNF (2000 IU/ml), total 4 h
JNK p46 and p54 = assay: MAPK activation assay (phospho-specific Western blot), JNK, L929sA cells; format: cell-based, mouse; details: 2000 IU/ml TNF 15 minutes
[3] = system: AP-1 (p1168(κBmut)IL6P-luc+); format: cell-based, mouse; details: 60 nM STS
[4] = system: NF-κB reporter p(IL6-κB)350hu.IL6P-luc+, GR dependence; format: cell-based, human; details: mock DNA versus pSVhGRα, 2000 IU/ml TNF
[5] = system: Gal4-p65 chimeric protein; assay: Gal4-p65 transactivation of p(Gal)2-50hu.IL6P-luc+ in L929sA cells; format: cell-based, mouse
[6] = kept in solution (especially at pH5 and above); cited from earlier work
[7] = system: IL-6 promoter (p1168hu.IL6P-luc+); format: cell-based, mouse; details: added 2 h before 2000 IU/ml TNF, total 8 h
[8] = system: NF-κB (p(IL6κB)350hu.IL6P-luc+); format: cell-based, mouse; details: 0.1, 1 or 10 μM CpdA compared with 1 μM DEX, 2000 IU/ml TNF
[9] = system: E-selectin promoter (pE-selectin-Luc); format: cell-based, mouse; details: 2000 IU/ml TNF
[10] = system: GRE-driven promoter (p(GRE)2-50-luc+); format: cell-based, mouse
pNF-κB-Luc = assay: TNF-activated pNF-κB-Luc (E1B TATA) in HEK293T cells; format: cell-based, human; details: 2000 IU/ml TNF
[11] = system: endogenous murine IL-6 production; assay: Murine IL-6 ELISA on supernatant of TNF-induced L929sA cells; format: cell-based, mouse; details: 1 μM and 10 μM, 2000 IU/ml TNF, 8 h
[12] = Stability of the compound on storage and in solution; format: physicochemical; details: solid, storage
Excerpt: The invention further relates to compositions, preferably pharmaceutical compositions, comprising as an active ingredient at least one of the compounds as defined in formula (I) together with (pharmaceutically) acceptable excipients. […] The preferred compound exerting this activity is 2(4-acetoxyphenyl)-2-chloro-N-methyl-ethylammonium chloride and has a molecular weight of 264.14.

[13] = system: NF-κB DNA-binding activity (IL-6 NF-κB response element); details: L929sA cells, previously demonstrated; cited from earlier work

## CNCC(Cl)c1ccc(OC(C)=O)cc1.Cl (stereo not shown) [CpdA, 2-(4-acetoxyphenyl)-2-chloro-N-methyl-ethylammonium chloride]
Oestrus cycle
  effect on oestrus cycle: disrupts the oestrus cycle of rats
[1]; 1 μM and 10 μM
  inhibition of TNF-induced NF-κB-mediated transactivation of p1168(AP-1mut)IL6P-luc+: capable of significantly inhibiting the TNF-induced promoter activity
[2]
  effect on NF-κB DNA-binding activity: no change of NF-κB DNA-binding activity is observed
JNK p46 and p54; 1 or 10 μM for 2 h
  effect on amount of phosphorylated (activated) JNK: does not affect the amount of activated JNK p46 and p54
[3]; 0.1, 1 and 10 μM
  inhibition of STS-induced AP-1-mediated transactivation: capable of inhibiting the STS-induced transactivation
[4]; 10 μM
  repression of TNF-activated p(IL6-κB)350hu.IL6P-luc+: only when GR is present
[5]; 10 μM
  inhibition of the activity of Gal4p65: able to halfmaximally inhibit the activity of Gal4p65
[6]
  stability in solution: starts to cyclise to the corresponding aziridine
[7]; 0.1 μM
  inhibition of TNF induction of p1168hu.IL6P-luc+ (relative luciferase induction factor): downmodulatory effect
[7]; 1 μM
  inhibition of TNF induction of p1168hu.IL6P-luc+ (relative luciferase induction factor): lowers the relative luciferase induction factor to almost the same extent as 1 μM DEX
[8]
  inhibition of TNF-activated p(IL6κB)350hu.IL6Pluc+: inhibits, to a similar extent as DEX
[9]; 1 μM
  inhibition of TNF-induced pE-selectin-luc+: also effective, though to a lesser extent
[9]; 10 μM
  inhibition of TNF-induced pE-selectin-luc+: inhibits the TNF-activated reporter to the same extent as 1 μM DEX, i.e. to background levels
[10]; 0.1 and 10 μM, 8 h
  transactivation of p(GRE)2-50-luc+: lack of activity
[10]; CpdA together with 1 μM DEX
  effect on DEX-induced p(GRE)2-50-luc+ transactivation: competition for GR molecules present in the cell
pNF-κB-Luc; 10 μM
  repression of TNF-activated pNF-κB-Luc: not able to mediate repression of pNF-κB-Luc
[11]
  lowering of TNF-induced IL-6 protein levels: able to efficiently lower these TNF-induced levels
[12]
  hygroscopicity and light sensitivity: hygroscopic and sensitive to light

## C[C@@H]1C[C@H]2[C@@H]3CCC4=CC(=O)C=C[C@]4(C)[C@@]3(F)[C@@H](O)C[C@]2(C)[C@@]1(O)C(=O)CO [DEX, Dexamethasone, reference compound]
[1]; 1 μM
  inhibition of TNF-induced NF-κB-mediated transactivation of p1168(AP-1mut)IL6P-luc+: efficiently inhibit this NF-κB-mediated transactivation
[13]
  effect on NF-κB DNA-binding capacities: without affecting the DNA-binding capacities of NF-κB
JNK p46 and p54; 1 μM for 2 h
  effect on amount of phosphorylated (activated) JNK: able to inhibit the amount of phosphorylated JNK
[3]; 1 μM
  inhibition of STS-induced AP-1-mediated transactivation: efficiently inhibits the AP-1-mediated transactivation
[4]; 1 μM
  repression of TNF-activated p(IL6-κB)350hu.IL6P-luc+: only when GR is present
[5]; 1 μM
  inhibition of the activity of Gal4p65: able to halfmaximally inhibit the activity of Gal4p65
[7]; 1 μM
  inhibition of TNF induction of p1168hu.IL6P-luc+ (relative luciferase induction factor): efficiently be inhibited
[9]; 1 μM
  inhibition of TNF-induced pE-selectin-luc+: to background levels
[10]; 1 μM, 8 h
  transactivation of p(GRE)2-50-luc+ (induction factor): at least 8 fold
pNF-κB-Luc; 1 μM
  repression of TNF-activated pNF-κB-Luc: not able to mediate repression of pNF-κB-Luc
